Test results as given in ChEMBL document CHEMBL3046166, “Synthesis and biological evaluation of some new Thiazolo[3,2-a][1,3,5]triazine derivatives” (2012).
Calls of active or inactive are those of the source. The rule behind the calls is not given here.

Columns and labels:
[1] = Induction of DNA fragmentation using ethidium bromide staining by agarose gel electrophoresis
Escherichia coli = test: Antibacterial activity against Escherichia coli after 24 hr by agar diffusion technique; format: functional

For O=c1/c(=C/c2ccc(Cl)cc2)sc2n1CN(c1ccccc1)CN=2, the Activity [1] was “Active” and the “diameter of the inhibition zone (DIZ)” value (Escherichia coli) was 14 mm.

With O=C1CSC2=NCN(c3ccccc3)CN12 the Activity [1] was “Active” and the “diameter of the inhibition zone (DIZ)” value (Escherichia coli) was 26 mm.

With N=C1NC(=O)CS1 the Activity [1] was “Active” and the “diameter of the inhibition zone (DIZ)” value (Escherichia coli) was 14 mm.

In the case of CSC(=S)C1Sc2nc(=S)sc(=S)n2C1=O (centres undefined), the Activity [1] is reported as “Active” and the “diameter of the inhibition zone (DIZ)” value (Escherichia coli) is reported as 14 mm.

In the case of N=C1NC(=O)/C(=C/c2ccccc2)S1, the Activity [1] is reported as “Active” and the “diameter of the inhibition zone (DIZ)” value (Escherichia coli) is reported as 15 mm.

For CN(C)/C=c1\sc2n(c1=O)CN(c1ccccc1)CN=2, the Activity [1] was “Active” and the “diameter of the inhibition zone (DIZ)” value (Escherichia coli) was 26 mm.

In the case of Cc1ccc(N/N=C2/SC3=NCN(c4ccccc4)CN3C2=O)cc1, the Activity [1] is reported as “Active” and the “diameter of the inhibition zone (DIZ)” value (Escherichia coli) is reported as 13 mm.

In the case of O=c1/c(=C/c2ccc3c(c2)OCO3)sc2n1CN(c1ccccc1)CN=2, the Activity [1] is reported as “Active” and the “diameter of the inhibition zone (DIZ)” value (Escherichia coli) is reported as 14 mm.

With CC1(C)S[C@@H]2[C@H](NC(=O)[C@H](N)c3ccccc3)C(=O)N2[C@H]1C(=O)O [AMPICILLIN] the “diameter of the inhibition zone (DIZ)” value (Escherichia coli) was 21 mm.

With O=c1/c(=C/c2ccc(/C=c3/sc4n(c3=O)CN(c3ccccc3)CN=4)cc2)sc2n1CN(c1ccccc1)CN=2 the Activity [1] was “Active” and the “diameter of the inhibition zone (DIZ)” value (Escherichia coli) was 14 mm.
